The nature of data set [1]: Solubility of the compound in ethanol by shake-flask method. It counts as physicochemical.
A short description of data set [2]: n-Octanol-water partition coefficient, log P of the compound by shake-flask method. The format is physicochemical.
Data set [3] is filed under the species Rattus norvegicus. The data set is described as follows: animal or person. The note with it: Wistar, po, read-out: INH.
The nature of data set [4]: Solubility of the compound in water by shake-flask method. It counts as physicochemical. The conditions noted are these: buffer.
A short description of data set [5]: Solubility of the compound in chloroform by shake-flask method. It counts as physicochemical.
Data set [6] in a line: Solubility of the compound in methanol by shake-flask method. The format is physicochemical.
For data set [7], the species on record is Rattus norvegicus. The data set is described as follows: animal or person. The note with it: Wistar, po, read-out: INH. The source holds these as a separate data set.
The species entered for data set [8] is Rattus norvegicus. The data set is described as follows: animal or person. The note with it: Wistar, po, read-out: INH. The source holds these as a separate data set.
A short description of data set [9]: Solubility of the compound in acetone by shake-flask method. The format is physicochemical.
A short description of data set [10]: Solubility of the compound in DMSO by shake-flask method. The format is physicochemical.
The species entered for data set [11] is Rattus norvegicus. As to the kind of experiment: animal or person. The conditions noted are these: Wistar, po, read-out: INH. The source holds these as a separate data set.
Data set [12] in a line: Inhibition of soybean lipoxygenase preincubated for 5 mins followed by linoleic acid substrate addition measured after 20 mins by spectrophotometric method. Also on record: species or system Glycine max.
For data set [13], the target named is T1, Prostaglandin G/H synthase 1 (Ovis aries, UniProt P05979).
T1 sequence (P05979 whole entry): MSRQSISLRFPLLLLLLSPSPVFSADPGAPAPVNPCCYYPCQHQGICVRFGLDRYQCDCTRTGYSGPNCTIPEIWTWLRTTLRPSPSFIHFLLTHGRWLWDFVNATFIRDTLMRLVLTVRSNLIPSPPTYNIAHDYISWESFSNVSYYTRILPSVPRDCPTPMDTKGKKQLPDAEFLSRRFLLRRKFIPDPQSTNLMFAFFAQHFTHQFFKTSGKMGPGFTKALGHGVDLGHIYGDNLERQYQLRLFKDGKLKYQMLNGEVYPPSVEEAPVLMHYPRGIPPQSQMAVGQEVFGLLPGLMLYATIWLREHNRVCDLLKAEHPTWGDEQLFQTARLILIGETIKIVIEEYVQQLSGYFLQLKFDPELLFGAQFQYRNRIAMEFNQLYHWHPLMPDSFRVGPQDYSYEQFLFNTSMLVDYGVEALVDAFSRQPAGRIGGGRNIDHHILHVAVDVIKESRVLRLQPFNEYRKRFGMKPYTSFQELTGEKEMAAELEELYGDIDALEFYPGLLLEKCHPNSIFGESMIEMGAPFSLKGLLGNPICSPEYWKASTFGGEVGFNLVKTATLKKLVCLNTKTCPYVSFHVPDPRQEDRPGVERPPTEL
Description: Inhibition of ovine COX-1 preincubated for 5 mins followed by arachidonic acid substrate addition by colorimetric enzyme immunoassay

The species named for data set [14] is Rattus norvegicus. As to the kind of experiment: Gastrointestinal toxicity in adjuvant-induced Wistar rat arthritis model assessed as ulcer index treated for 7 days measured on day 21 post arthritis induction. The note with it: in vivo, 168 h.
A further data set relates to RAW264.7. As to the kind of experiment: Anti-inflammatory activity in mouse RAW264.7 cells assessed as reduction in LPS-induced NO production by Griess assay. The format is functional, cell-based. Background: Griess reagent forms a coloured azo dye with nitrite.
Data set [15] concerns Rattus norvegicus. The data set is described as follows: Anti inflammatory activity in carrageenan-induced Wistar rat paw edema model assessed as inhibition of left hind paw edema size at 10 mg/kg, po pretreated for 1 hr followed by carrageenan challenge measured after 6 hrs by plethysmometry method (reference value: 0%). The format is functional.
For data set [16], the system named is Rattus norvegicus. As to the kind of experiment: Anti inflammatory activity in carrageenan-induced Wistar rat paw edema model assessed as inhibition of left hind paw edema size at 10 mg/kg, po pretreated for 1 hr followed by carrageenan challenge measured after 2 hrs by plethysmometry method (reference value: 0%). The format is functional. In general terms: The carrageenan paw model is a standard test of acute inflammation.

The test system of data set [17] is Rattus norvegicus. As to the kind of experiment: Anti inflammatory activity in carrageenan-induced Wistar rat paw edema model assessed as inhibition of left hind paw edema size at 10 mg/kg, po pretreated for 1 hr followed by carrageenan challenge measured after 4 hrs by plethysmometry method (reference value: 0%). The format is functional.
A short description of data set [18]: Non noncompetitive inhibition of soybean lipoxygenase preincubated for 5 mins followed by substrate addition measured after 20 mins by Lineweaver-Burk plot analysis. Also on record: species or system Glycine max.
In data set [19] the target is T2, Prostaglandin G/H synthase 2 (Homo sapiens, UniProt P35354).
T2 sequence (P35354 whole entry): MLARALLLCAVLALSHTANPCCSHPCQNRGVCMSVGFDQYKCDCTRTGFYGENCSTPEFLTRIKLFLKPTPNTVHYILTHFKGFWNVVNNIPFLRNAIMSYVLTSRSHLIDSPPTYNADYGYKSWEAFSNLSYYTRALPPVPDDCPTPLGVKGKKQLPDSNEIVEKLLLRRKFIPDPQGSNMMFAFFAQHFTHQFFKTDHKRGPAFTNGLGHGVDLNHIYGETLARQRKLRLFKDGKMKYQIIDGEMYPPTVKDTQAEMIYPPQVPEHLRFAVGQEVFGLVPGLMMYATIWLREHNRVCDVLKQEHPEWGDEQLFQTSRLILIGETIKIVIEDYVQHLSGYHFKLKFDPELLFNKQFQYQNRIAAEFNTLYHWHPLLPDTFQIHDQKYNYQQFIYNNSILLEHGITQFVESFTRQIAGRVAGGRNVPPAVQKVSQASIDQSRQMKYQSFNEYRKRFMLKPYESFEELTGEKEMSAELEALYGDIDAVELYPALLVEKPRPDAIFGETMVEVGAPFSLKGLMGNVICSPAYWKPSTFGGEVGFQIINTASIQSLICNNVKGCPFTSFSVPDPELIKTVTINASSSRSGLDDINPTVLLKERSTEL
Description: Inhibition of human COX-2 preincubated for 5 mins followed by arachidonic acid substrate addition by colorimetric enzyme immunoassay

The target in data set [20] is T2, Prostaglandin G/H synthase 2. The data set is described as follows: Non noncompetitive inhibition of human COX-2 preincubated for 5 mins followed by arachidonic acid substrate addition by Lineweaver-Burk plot analysis.
Data set [21] concerns Rattus norvegicus. The data set is described as follows: Anti inflammatory activity in arachidonic acid-induced Wistar rat paw edema model assessed as inhibition of right hind paw edema thickness at 10 mg/kg, po pretreated for 30 mins followed by arachidonic acid challenge measured after 1 hr (reference value: 0%). The format is functional.

13 compounds from ChEMBL document CHEMBL4043103, “Design, synthesis, and biological evaluation of some novel indolizine derivatives as dual cyclooxygenase and lipoxygenase inhibitor for anti-inflammatory activity” (Bioorg Med Chem, 2017) can be followed below.

The term logP denotes a log measure of how a compound divides between an organic and an aqueous phase. A high value points to higher lipophilicity. With `NCc1c(-c2ccc3c(c2)OCO3)c(C(=O)O)c2ccccn12`, the solubility entry was “Soluble” in [1]; “Soluble” in data set [4]; “Insoluble” in [5]; “Soluble” in [6]; “Soluble” in [9]; “Soluble” in data set [10]. The compound also came in with a logP in [2] of 2.07. The inhibition in vivo at 10 mg/kg in the data set filed under Rattus norvegicus [3] was 23.1%; in the data set listed under Rattus norvegicus [7], 74.4%; in the data set filed under Rattus norvegicus [8], 78.1%; in the data set filed under Rattus norvegicus [11], 61.9%.
The term IC50 denotes the concentration that inhibits the measured activity by half. For the compound `CC1(C)Cc2c(-c3ccccc3)c(-c3ccc(Cl)cc3)c(CC(=O)O)n2C1` [LICOFELONE], the IC50 in data set [12] stood at 0.21 µM; in data set [13] it was 0.16 µM.
Consider `NCc1c(-c2ccc(C(F)(F)F)cc2)c(C(=O)O)c2ccccn12`, for which the solubility entry in data set [1] is “Soluble”; in data set [4], “Soluble”; in data set [5], “Insoluble”; in [6], “Soluble”; in data set [9], “Soluble”; in [10] it was “Soluble”. In addition, in data set [2], the lipophilicity (logP) came to 2.06. Further, the inhibition in vivo at 10 mg/kg worked out at 40% in the data set filed under Rattus norvegicus [3], 62.8% in the data set listed under Rattus norvegicus [7], 67.7% in the data set listed under Rattus norvegicus [8] and 42.8% in the data set filed under Rattus norvegicus [11].
In the case of `Cc1c(C(=O)O)c2ccccn2c1CN`, the solubility entry is listed as “Soluble” in [1]; “Soluble” in data set [4]; “Insoluble” in [5]; “Soluble” in [6]; “Soluble” in [9]; “Soluble” in data set [10]. In data set [2], this compound showed a logP of 0.72. Also, the inhibition in vivo at 10 mg/kg in the data set listed under Rattus norvegicus [3] came out at 23.1%; in the data set filed under Rattus norvegicus [7], 44.2%; in the data set filed under Rattus norvegicus [8], 38.5%; in the data set filed under Rattus norvegicus [11] it was 41.3%.
On to `Cc1ccc(-c2cc(C(F)(F)F)nn2-c2ccc(S(N)(=O)=O)cc2)cc1` [CELECOXIB], for which the UI in the data set listed under Rattus norvegicus [14] was 53.
On to `Cc1ccc2n1[C@@H]1[C@H]3O[C@]([C@H](C)O)(C=C2)[C@H]1c1cc([C@H]2C=Cc4ccc(C)n4[C@@H]2C)cn1[C@@H]3C`, for which the IC50 in the data set on RAW264.7 stood at 5.31 µM.
Consider `O=C(O)Cc1ccccc1Nc1c(Cl)cccc1Cl` [DICLOFENAC], for which the inhibition in vivo at 10 mg/kg is 90.9% in the data set on Rattus norvegicus [15], 74.6% in the data set on Rattus norvegicus [16] and 91.6% with Rattus norvegicus [17]. Also, in the data set listed under Rattus norvegicus [14], the UI is 46.
For `COc1cc(-c2c(C(=O)O)c3ccccn3c2CN)ccc1O`, the solubility result in data set [1] is reported as “Soluble”; in data set [4], “Soluble”; in data set [5], “Insoluble”; in [6] it was “Soluble”; in data set [9], “Soluble”; in [10], “Soluble”. In data set [2], this compound returned a logP of 1.55. Moreover, the inhibition in vivo at 10 mg/kg was determined as 36.9% in the data set listed under Rattus norvegicus [3], 63.9% in the data set listed under Rattus norvegicus [7], 59.4% in the data set filed under Rattus norvegicus [8] and 50.8% in the data set filed under Rattus norvegicus [11].
Regarding `CCc1c(C(=O)O)c2ccccn2c1CN`, the solubility entry in [1] was “Soluble”; in [4], “Soluble”; in data set [5], “Insoluble”; in data set [6] it was “Soluble”; in [9], “Soluble”; in [10], “Soluble”. The compound also registered a logP in data set [2] of 1.45. For the same compound, the inhibition in vivo at 10 mg/kg was found to be 20.2% in the data set filed under Rattus norvegicus [3], 32.5% in the data set filed under Rattus norvegicus [7], 34.3% in the data set filed under Rattus norvegicus [8] and 30.2% in the data set listed under Rattus norvegicus [11].
For `NCc1c(-c2ccc(F)cc2)c(C(=O)O)c2ccccn12`, the solubility entry in data set [1] was “Soluble”; in data set [4], “Soluble”; in data set [5], “Insoluble”; in [6] it was “Soluble”; in [9], “Soluble”; in data set [10], “Soluble”. In addition, the logP in [2] worked out at 2.12. Moreover, the inhibition in vivo at 10 mg/kg in the data set listed under Rattus norvegicus [3] was determined as 61.5%; in the data set filed under Rattus norvegicus [7], 89.5%; in the data set listed under Rattus norvegicus [8], 86.4%; in the data set filed under Rattus norvegicus [11], 69.8%.
As usually defined, the Ki is a dissociation constant, usually derived from enzyme kinetics or from competition with a known ligand. Read a low Ki as a stronger hold on the target. With `NCc1c(-c2ccccc2)c(C(=O)O)c2ccccn12`, the IC50 in data set [12] was 13.1 µM; in data set [19], 14.9 µM; in data set [13] it was above 50 µM. In addition, the solubility result in data set [1] was “Soluble”; in [4] it was “Soluble”; in data set [5] it was “Insoluble”; in data set [6] it was “Soluble”; in data set [9], “Soluble”; in data set [10] it was “Soluble”. The values for the Ki in data set [18] and in [20] were 0.72 µM and 0.92 µM, respectively. Further, the logP in [2] amounted to 1.85. Also, the inhibition in vivo at 10 mg/kg in the data set filed under Rattus norvegicus [3] turned out to be 66.2%; in the data set listed under Rattus norvegicus [7], 90.5%; in the data set filed under Rattus norvegicus [8] it was 88.6%; in the data set filed under Rattus norvegicus [11], 68.2%. For the same compound, the UI in the data set listed under Rattus norvegicus [14] is reported as 10.
Regarding `CC(c1cc2ccccc2s1)N(O)C(N)=O` (stereo not given) [ZILEUTON], in data set [12], inhibition was half-maximal at 3.43 µM (IC50). Besides, in the data set with Rattus norvegicus [21], the inhibition in vivo at 10 mg/kg is 72.3%. Moreover, in the data set listed under Rattus norvegicus [14], the UI amounted to 52.
For `CCCCc1c(C(=O)O)c2ccccn2c1CN`, the solubility result is “Soluble” in data set [1]; “Soluble” in data set [4]; “Insoluble” in data set [5]; “Soluble” in data set [6]; “Soluble” in data set [9]; “Soluble” in [10]. In data set [2], this compound showed a lipophilicity (logP) of 2.07. Moreover, the inhibition in vivo at 10 mg/kg in the data set listed under Rattus norvegicus [3] was 15.4%; in the data set filed under Rattus norvegicus [7], 24.4%; in the data set filed under Rattus norvegicus [8], 23.9%; in the data set filed under Rattus norvegicus [11], 23.8%.
